Values joined by “and” are separate entries in the source; they are usually repeats but may differ in a detail not shown here. Equal entries are not always repeated. “Also recorded” adds a separate entry of the source. Where two headings read alike, the source gives them in different places.
How the values were obtained:
S. aureus (ATCC 6538) = assay: MIC test in LB broth comparing AgNO3 and complex 106; type: cell-based; parameters: key: +=growth; −=no growth
[1] = test system: P. aeruginosa (ATCC 9027); assay: as above; type: cell-based; parameters: key: +=growth; −=no growth
solubility = details: 37: bromide salt; 20a, 20b: bromide salts
E. coli (ATCC 8739) = assay: MIC test in LB broth comparing AgNO3 and complex 106; type: cell-based; parameters: key: +=growth; −=no growth
[2] = test system: E. coli, P. aeruginosa, S. aureus; assay: MIC test in aqueous LB broth, summary of Table 5; type: cell-based
[3] = stability (air, light, water, chloride, storage)
[4] = test system: Escherichia coli, Staphylococcus aureus, and Pseudomonas aeruginosa; assay: agar plates overlay method, summary of Table 2; type: cell-based
Experimental: The usefulness of the compounds represented by Formulas 103 and 55 as antimicrobial agents was evaluated. In this test, a filter paper disc of 6 mm diameter was soaked with 20 μL of a silver compound of known concentration, and placed over a lawn of an organism in the agar plate. The diameter of the area in which growth of the organism is inhibited by the test solution was measured after an over night incubation as a measure of the relative antimicrobial activity of the silver compounds. The test organisms were Escherichia coli, Staphylococcus aureus, and Pseudomonas aeruginosa.

Staphylococcus aureus = type: cell-based
Experimental: (§1) In this test, a filter paper disc of 6 mm diameter was soaked with 20 μL of a silver compound of known concentration, and placed over a lawn of an organism in the agar plate. The diameter of the area in which growth of the organism is inhibited by the test solution was measured after an over night incubation as a measure of the relative antimicrobial activity of the silver compounds. The test organisms were Escherichia coli, Staphylococcus aureus, and Pseudomonas aeruginosa.

Pseudomonas aeruginosa = type: cell-based
Experimental: as §1

Escherichia coli = type: cell-based
Experimental: as §1

[5] = test system: Escherichia coli, Staphylococcus aureus, and Pseudomonas aeruginosa; details: supernatants, less silver chloride
rats = assay: Toxicity studies with rats, clearance by mass spectroscopy of the urine; type: in vivo
[6] = test system: S. aureus, P. aeruginosa, and E. coli; assay: filter disk test and standard MIC technique; type: cell-based
[7] = LD50 in rats, preliminary studies; details: rat, in vivo, imidazolium cation portion
Text: The imidazolium salt 1,3,9-trimethyl-7-(2,3-dihyroxypropyl)xanthinium iodide represented by Formula 201 is obtained by reacting 7-(2,3-dihydroxypropyl)theophylline (Formula 200) with methyl iodide in dimethylformamide. The imidazolium salt represented by Formula 201 reacts with silver acetate in methanol to yield the N-heterocyclic carbene silver(I) acetate complex (Formula 202), which is a white solid in 34% yield (structure confirmed by X-ray crystallography). The compound represented by Formula 202 is water soluble (Ksp=82 mg/mL) and is stable for at least 7 days in water by NMR. As the compound represented by Formula 202 decomposes to release Ag^+ thereby regenerating the cationic portion of the compound of Formula 201. The imidazolium cation portion of the compound represented by Formula 201 has an LD50 in rats of >2.0 g/kg in preliminary studies.

panel of E. coli = assay: MIC for a panel of E. coli (UTI strains), 96-well plate; details: Escherichia coli, 16 h
[8] = test system: bladder carcinoma-derived T24 epithelial cell line (ATCC HTB-4); assay: In vitro toxicity, propidium iodide flow cytometry; type: cell-based
Experimental: A prerequisite for a topical biocide is that it confers acceptable toxicity to the tissue(s) of interest. In vitro toxicity of the compound represented by Formula 202 has been studied using the bladder carcinoma-derived T24 epithelial cell line (ATCC HTB-4). T24 cells were grown in RPMI 1640 medium available from Life Technologies (Carlsbad, Calif.) supplemented with 10% fetal bovine serum available from Sigma (St. Louis, Mo.), seeded into 24-well plates, and grown to confluence over 48 hours. Cells were washed with sterile phosphate buffered saline (PBS) and fresh warmed medium was added, either alone or containing the compound represented by Formula 202 (added to the medium at the start of the experiment to minimize premature liberation of Ag^+ from the compound represented by Formula 202) at concentrations between 5 and 50 μg/mL. After incubation for 1 to 2 hours, cells were released by treatment with 0.05% trypsin-0.02% EDTA, suspended in sorting buffer, stained with propidium iodide, and subjected to flow cytometry on a FACS Calibur instrument available from Becton Dickinson (Piscataway, N.J.).

physchem = details: water
[9] = Day 1, 1DF: AgNO3 1731.18, 106 1675.74 μg/mL
[10] = Day 1, 2DF: AgNO3 865.59, 106 837.87 μg/mL
[11] = Day 1, 3DF: AgNO3 432.79, 106 418.94 μg/mL
[12] = Day 1, 4DF: AgNO3 216.40, 106 209.47 μg/mL
[13] = Day 1, undiluted: AgNO3 0.50 wt/V % (3462.35 μg/mL), 106 1.38 wt/V % (3341.48 μg/mL)
[14] = Day 2, 1DF: AgNO3 1731.18, 106 1675.74 μg/mL
[15] = Day 2, 2DF: AgNO3 865.59, 106 837.87 μg/mL
[16] = Day 2, 3DF: AgNO3 432.79, 106 418.94 μg/mL
[17] = Day 2, 4DF: AgNO3 216.40, 106 209.47 μg/mL
[18] = Day 2, undiluted: AgNO3 0.50 wt/V % (3462.35 μg/mL), 106 1.38 wt/V % (3341.48 μg/mL)
[19] = 0.5% solution, 20 μL on 6 mm filter paper disc, over night

## OC1(O)CN2C=CN3Cc4cccc(n4)CN4C=CN(C1)[CH]4[Ag+][CH]1N4C=CN1CC(O)(O)CN1C=CN(Cc5cccc(n5)C4)[CH]1[Ag][CH]32 [Complex 106]
S. aureus (ATCC 6538); [9]
  growth / no growth: −
S. aureus (ATCC 6538); [10]
  growth / no growth: −
S. aureus (ATCC 6538); [11]
  growth / no growth: −
S. aureus (ATCC 6538); [12]
  growth / no growth: −
S. aureus (ATCC 6538); [13]
  growth / no growth: −
S. aureus (ATCC 6538); [14]
  growth / no growth: −
S. aureus (ATCC 6538); [15]
  growth / no growth: −
S. aureus (ATCC 6538); [16]
  growth / no growth: +
S. aureus (ATCC 6538); [17]
  growth / no growth: +
S. aureus (ATCC 6538); [18]
  growth / no growth: −
[1]; [9]
  growth / no growth: −
[1]; [10]
  growth / no growth: −
[1]; [11]
  growth / no growth: −
[1]; [12]
  growth / no growth: −
[1]; [13]
  growth / no growth: −
[1]; [14]
  growth / no growth: −
[1]; [15]
  growth / no growth: −
[1]; [16]
  growth / no growth: +
[1]; [17]
  growth / no growth: +
[1]; [18]
  growth / no growth: −
solubility
  solubility in water / aqueous media: sparingly soluble in water
E. coli (ATCC 8739); [9]
  growth / no growth: −
E. coli (ATCC 8739); [10]
  growth / no growth: −
E. coli (ATCC 8739); [11]
  growth / no growth: −
E. coli (ATCC 8739); [12]
  growth / no growth: −
E. coli (ATCC 8739); [13]
  growth / no growth: −
E. coli (ATCC 8739); [14]
  growth / no growth: −
E. coli (ATCC 8739); [15]
  growth / no growth: −
E. coli (ATCC 8739); [16]
  growth / no growth: +
E. coli (ATCC 8739); [17]
  growth / no growth: +
E. coli (ATCC 8739); [18]
  growth / no growth: −
[2]; about the same amount of silver
  antimicrobial activity of the aqueous form, fold less effective than 0.5% AgNO3: 2 fold
[2]; after 48 hrs of incubation, read-out: MIC concentration
  MIC: 838 µg/mL
[3]
  stability in air and light: air and light stable
[3]; 37: bromide salt, 20a, 20b: bromide salts
  stability in water: quick decomposition

## OCCN1C=CN(Cc2cccc(CN3C=CN(CCO)C3)n2)C1 [Compound 101]
[4]
  antimicrobial properties (Table 2 summary): no antimicrobial activity
Staphylococcus aureus; [19]
  Diameter of Inhibited Area: 6 mm
Pseudomonas aeruginosa; [19]
  Diameter of Inhibited Area: 6 mm
Escherichia coli; [19]
  Diameter of Inhibited Area: 6 mm

## OCCCN1C=CN(Cc2cccc(CN3C=CN(CCCO)C3)n2)C1 [Compound 102]
[4]
  antimicrobial properties (Table 2 summary): no antimicrobial activity
Staphylococcus aureus; [19]
  Diameter of Inhibited Area: 6 mm
Pseudomonas aeruginosa; [19]
  Diameter of Inhibited Area: 6 mm
Escherichia coli; [19]
  Diameter of Inhibited Area: 6 mm

## F[P-](F)(F)(F)(F)F.F[P-](F)(F)(F)(F)F.OCCn1cc[n+]2[c]1[Ag-][c]1n(CCO)cc[n+]1Cc1cccc(n1)C[n+]1ccn(CCO)[c]1[Ag-][c]1n(CCO)cc[n+]1Cc1cccc(n1)C2 [Compound 105]
[4]
  antimicrobial properties (Table 2 summary): comparable to silver nitrate
Staphylococcus aureus
  Diameter of Inhibited Area: 9 mm and 10.67 mm
Pseudomonas aeruginosa
  Diameter of Inhibited Area: 12 mm and 10.25 mm
Escherichia coli
  Diameter of Inhibited Area: 10 mm and 11.58 mm
[5]
  antimicrobial activity compared with silver nitrate (Table 3 summary): better antimicrobial activity than silver nitrate
solubility
  solubility in water / aqueous media: is not; also recorded: soluble in aqueous media

## OCC[n+]1ccn(Cc2cccc(Cn3cc[n+](CCO)c3)n2)c1.[Br-].[Br-] [Formula 19a]
rats
  toxicity: low toxicity
rats; mass spectroscopy of the urine
  clearance through the kidneys: clears within two days

## CC(=O)[O][Ag][CH]1N(C)c2c(n(C)c(=O)n(C)c2=O)N1C (stereo not shown) [Formula 100]
[6]
  antimicrobial activity: effective antimicrobial activity
[3]
  stability in air and light: air stable

## CN1CN(CC(O)CO)c2c1n(C)c(=O)n(C)c2=O (stereo not shown) [Formula 201]
[7]
  LD50: > 2000 mg/kg

## CC(=O)[O][Ag][CH]1N(C)c2c(c(=O)n(C)c(=O)n2C)N1CC(O)CO (stereo not shown) [Formula 202]
Panel of E. coli
  MIC: 2 to 4 µg/mL
[8]; 1 h of treatment at 5 μg/mL
  loss of viability: ~5%
[8]; 2 hours of treatment at 5 μg/mL
  loss of viability: approximately 11%
physchem
  solubility: 82 mg/mL
[3]; room temperature
  shelf life: several months
[3]; solid form
  stable in solid form: a couple months
[3]; water
  stable in water by NMR: at least 7 days
